# Read-outs that look alike come from different tables or passages of the source.
# Tests used:
# [1] = target: T1, GlyRA1 (Homo sapiens, UniProt P23415); format: cell-based
# T1 construct: purchased Cerep (Eurofins), Poitiers, France; Promega P450-Glo; in-house COS-7 uptake assays
# T1 sequence (P23415 29-457): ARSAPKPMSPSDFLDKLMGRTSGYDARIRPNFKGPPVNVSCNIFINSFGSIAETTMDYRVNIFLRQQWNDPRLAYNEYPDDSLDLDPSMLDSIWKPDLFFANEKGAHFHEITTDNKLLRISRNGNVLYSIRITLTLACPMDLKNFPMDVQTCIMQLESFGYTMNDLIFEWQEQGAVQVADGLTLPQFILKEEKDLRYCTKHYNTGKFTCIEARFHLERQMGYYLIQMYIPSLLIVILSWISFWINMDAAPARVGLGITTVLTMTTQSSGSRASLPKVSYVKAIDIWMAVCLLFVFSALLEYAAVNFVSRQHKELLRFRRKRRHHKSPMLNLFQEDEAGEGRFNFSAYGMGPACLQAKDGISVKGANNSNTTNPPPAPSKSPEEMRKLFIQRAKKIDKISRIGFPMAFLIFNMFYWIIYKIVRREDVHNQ
# [2] = test system: motor coordination of mice; conditions: mouse, in vivo, ip; cited from earlier work
# [3] = test system: 6 Hz (32 mA) seizures in mice; conditions: mouse, in vivo; cited from earlier work
# [4] = test system: maximal electroshock seizures in mice; conditions: mouse, in vivo; cited from earlier work
# [5] = target: hCav3.2 (Homo sapiens, UniProt O95180); experiment: cell-based
# Sequence of hCav3.2 (O95180 whole entry): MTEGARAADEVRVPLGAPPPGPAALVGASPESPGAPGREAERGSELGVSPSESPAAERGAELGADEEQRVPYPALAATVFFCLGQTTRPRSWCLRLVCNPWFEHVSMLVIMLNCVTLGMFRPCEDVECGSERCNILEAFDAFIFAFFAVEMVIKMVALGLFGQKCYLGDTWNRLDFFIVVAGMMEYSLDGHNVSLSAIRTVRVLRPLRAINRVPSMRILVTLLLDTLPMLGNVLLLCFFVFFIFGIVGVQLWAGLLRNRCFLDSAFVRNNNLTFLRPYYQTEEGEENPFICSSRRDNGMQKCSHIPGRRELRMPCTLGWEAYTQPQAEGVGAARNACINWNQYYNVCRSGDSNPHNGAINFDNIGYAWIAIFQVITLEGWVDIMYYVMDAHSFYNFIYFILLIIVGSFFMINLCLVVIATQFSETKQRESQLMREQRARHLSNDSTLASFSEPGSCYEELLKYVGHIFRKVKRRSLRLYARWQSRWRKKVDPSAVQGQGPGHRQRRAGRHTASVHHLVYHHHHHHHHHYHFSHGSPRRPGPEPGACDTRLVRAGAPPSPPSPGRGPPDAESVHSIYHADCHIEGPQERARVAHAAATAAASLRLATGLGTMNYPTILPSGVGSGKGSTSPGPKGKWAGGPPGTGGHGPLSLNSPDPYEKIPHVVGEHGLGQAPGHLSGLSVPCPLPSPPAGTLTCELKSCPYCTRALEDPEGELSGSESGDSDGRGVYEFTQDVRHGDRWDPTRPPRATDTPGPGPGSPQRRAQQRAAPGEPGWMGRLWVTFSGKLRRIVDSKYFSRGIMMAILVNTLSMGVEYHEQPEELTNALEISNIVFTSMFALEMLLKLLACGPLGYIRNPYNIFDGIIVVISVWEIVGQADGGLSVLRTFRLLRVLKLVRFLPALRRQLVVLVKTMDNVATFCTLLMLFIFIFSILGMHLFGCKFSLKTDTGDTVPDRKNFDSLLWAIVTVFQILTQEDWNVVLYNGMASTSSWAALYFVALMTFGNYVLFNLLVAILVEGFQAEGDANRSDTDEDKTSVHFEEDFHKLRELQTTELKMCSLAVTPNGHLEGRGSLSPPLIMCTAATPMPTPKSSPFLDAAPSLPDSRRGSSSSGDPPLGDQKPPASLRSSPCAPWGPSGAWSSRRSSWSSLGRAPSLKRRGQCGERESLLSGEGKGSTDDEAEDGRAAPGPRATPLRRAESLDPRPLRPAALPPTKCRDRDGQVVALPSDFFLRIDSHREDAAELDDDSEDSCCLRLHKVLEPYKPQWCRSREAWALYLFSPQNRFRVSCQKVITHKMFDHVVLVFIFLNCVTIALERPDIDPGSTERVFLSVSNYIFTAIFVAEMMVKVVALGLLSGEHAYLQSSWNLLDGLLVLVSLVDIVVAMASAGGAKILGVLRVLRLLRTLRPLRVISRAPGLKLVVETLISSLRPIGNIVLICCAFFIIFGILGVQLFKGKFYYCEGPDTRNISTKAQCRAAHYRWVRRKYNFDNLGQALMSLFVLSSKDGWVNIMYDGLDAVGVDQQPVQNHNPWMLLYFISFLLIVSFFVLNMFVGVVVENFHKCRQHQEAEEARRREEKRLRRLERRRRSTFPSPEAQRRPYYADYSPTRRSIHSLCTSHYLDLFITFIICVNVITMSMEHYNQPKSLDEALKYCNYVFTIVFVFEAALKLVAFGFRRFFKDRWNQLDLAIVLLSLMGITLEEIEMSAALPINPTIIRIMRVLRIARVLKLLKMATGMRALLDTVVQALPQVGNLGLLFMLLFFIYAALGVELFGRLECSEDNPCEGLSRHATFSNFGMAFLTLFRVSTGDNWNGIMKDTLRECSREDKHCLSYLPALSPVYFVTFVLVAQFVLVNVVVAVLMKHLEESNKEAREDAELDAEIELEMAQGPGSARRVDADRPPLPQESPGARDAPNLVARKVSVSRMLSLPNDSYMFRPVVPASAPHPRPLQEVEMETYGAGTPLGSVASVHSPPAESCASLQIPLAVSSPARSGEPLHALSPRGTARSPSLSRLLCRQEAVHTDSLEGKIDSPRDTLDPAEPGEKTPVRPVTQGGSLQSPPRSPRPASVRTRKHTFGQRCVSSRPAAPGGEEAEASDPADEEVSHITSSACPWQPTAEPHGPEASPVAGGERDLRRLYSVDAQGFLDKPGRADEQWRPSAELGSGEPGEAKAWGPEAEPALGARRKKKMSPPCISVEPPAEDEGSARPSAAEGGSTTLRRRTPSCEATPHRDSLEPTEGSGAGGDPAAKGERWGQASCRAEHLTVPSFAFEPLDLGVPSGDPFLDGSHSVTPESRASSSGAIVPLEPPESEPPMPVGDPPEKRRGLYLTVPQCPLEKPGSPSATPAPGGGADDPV
# [6] = test system: PTZ-induced kindling in mice; conditions: VPA 150 mg/kg i.p. (positive control)
# [7] = test system: PTZ-induced seizures in mice; conditions: mouse, in vivo; cited from earlier work
compound,measurement,setting,value
"NCC(=O)O [Glycine, reference compound]","GlyRA1 agonist, % Control, Mean",[1],89.99%
same,"GlyRA1 agonist, % Control, n1",[1],92.59%
same,"GlyRA1 agonist, % Control, n2",[1],87.38%
CC(C(=O)NCc1ccccc1F)N1C(=O)CCC1=O (stereo not shown) [II],TD50 (rotarod),[2],300.9 (256.7–352.6) mg/kg
"COC[C@@H](NC(C)=O)C(=O)NCc1ccccc1 [LCS, lacosamide]",ED50 (6 Hz 32 mA),[3],5.3 (3.5–7.8) mg/kg
same,ED50 (MES),[4],9.2 (8.5–10.0) mg/kg
"CC[C@@H](C(N)=O)N1CCCC1=O [LEV, levetiracetam]",ED50 (MES),[4],>500 mg/kg
"COCC(=O)O[C@]1(CCN(C)CCCc2nc3ccccc3[nH]2)CCc2cc(F)ccc2[C@@H]1C(C)C [Mibefradil, reference compound]",inhibition at 30 µM,"[5]; read-out: hCav3.2 % Inhibition, Mean",95.5%
same,inhibition at 30 µM,"[5]; read-out: hCav3.2 % Inhibition, n1",96.1%
same,inhibition at 30 µM,"[5]; read-out: hCav3.2 % Inhibition, n2",94.8%
"CCCC(CCC)C(=O)O [VPA, valproic acid]",effect on kindling development,[6],suppressed kindling development
same,ED50 (6 Hz 32 mA),[3],130.6 (117.6–145.2) mg/kg
same,ED50 (scPTZ),[7],239.4 (209.2–274.1) mg/kg
